In ChEMBL document CHEMBL4308864, “Targeting tyrosine kinase: Development of acridone - pyrrole - oxindole hybrids against human breast cancer” (2019):

Assays:
Format in all cases: functional
[1] = test system: K562; test: Growth inhibition of human K562 cells assessed as cell growth at 10^-5 M incubated for 48 hrs by sulforhodamine B assay relative to control; conditions: K562, 48 h, read-out: Activity
[2] = test system: RPMI-8226; test: Growth inhibition of human RPMI8226 cells assessed as cell growth at 10^-5 M incubated for 48 hrs by sulforhodamine B assay relative to control; conditions: RPMI-8226, 48 h, read-out: Activity
[3] = test system: SR; test: Growth inhibition of human SR cells assessed as cell growth at 10^-5 M incubated for 48 hrs by sulforhodamine B assay relative to control; conditions: read-out: Activity
[4] = test system: EKVX; test: Growth inhibition of human EKVX cells assessed as cell growth at 10^-5 M incubated for 48 hrs by sulforhodamine B assay relative to control; conditions: read-out: Activity
[5] = test system: HOP-62; test: Growth inhibition of human HOP62 cells assessed as cell growth at 10^-5 M incubated for 48 hrs by sulforhodamine B assay relative to control; conditions: HOP-62, 48 h, read-out: Activity
[6] = test system: HOP-92; test: Growth inhibition of human HOP92 cells assessed as cell growth at 10^-5 M incubated for 48 hrs by sulforhodamine B assay relative to control; conditions: HOP-92, 48 h, read-out: Activity
[7] = test system: NCI-H226; test: Growth inhibition of human NCI-H226 cells assessed as cell growth at 10^-5 M incubated for 48 hrs by sulforhodamine B assay relative to control; conditions: NCI-H226, 48 h, read-out: Activity
[8] = test system: NCI-H23; test: Growth inhibition of human NCI-H23 cells assessed as cell growth at 10^-5 M incubated for 48 hrs by sulforhodamine B assay relative to control; conditions: NCI-H23, 48 h, read-out: Activity
[9] = test system: NCI-H322M; test: Growth inhibition of human NCI-H322M cells assessed as cell growth at 10^-5 M incubated for 48 hrs by sulforhodamine B assay relative to control; conditions: read-out: Activity
[10] = test system: COLO 205; test: Growth inhibition of human COLO205 cells assessed as cell growth at 10^-5 M incubated for 48 hrs by sulforhodamine B assay relative to control; conditions: COLO 205, 48 h, read-out: Activity
[11] = test system: KM12; test: Growth inhibition of human KM12 cells assessed as cell growth at 10^-5 M incubated for 48 hrs by sulforhodamine B assay relative to control; conditions: KM12, 48 h, read-out: Activity
[12] = test system: SW-620; test: Growth inhibition of human SW620 cells assessed as cell growth at 10^-5 M incubated for 48 hrs by sulforhodamine B assay relative to control; conditions: SW-620, 48 h, read-out: Activity
[13] = test system: SF-295; test: Growth inhibition of human SF295 cells assessed as cell growth at 10^-5 M incubated for 48 hrs by sulforhodamine B assay relative to control; conditions: SF-295, 48 h, read-out: Activity
[14] = test system: SF-539; test: Growth inhibition of human SF539 cells assessed as cell growth at 10^-5 M incubated for 48 hrs by sulforhodamine B assay relative to control; conditions: SF-539, 48 h, read-out: Activity
[15] = test system: SNB-19; test: Growth inhibition of human SNB19 cells assessed as cell growth at 10^-5 M incubated for 48 hrs by sulforhodamine B assay relative to control; conditions: SNB-19, 48 h, read-out: Activity
[16] = test system: MDA-MB-435; test: Growth inhibition of human MDA-MB-435 cells assessed as cell growth at 10^-5 M incubated for 48 hrs by sulforhodamine B assay relative to control; conditions: MDA-MB-435, 48 h, read-out: Activity
[17] = test system: SK-MEL-5; test: Growth inhibition of human SK-MEL-5 cells assessed as cell growth at 10^-5 M incubated for 48 hrs by sulforhodamine B assay relative to control; conditions: SK-MEL-5, 48 h, read-out: Activity
[18] = test system: UACC-257; test: Growth inhibition of human UACC257 cells assessed as cell growth at 10^-5 M incubated for 48 hrs by sulforhodamine B assay relative to control; conditions: UACC-257, 48 h, read-out: Activity
[19] = test system: OVCAR-3; test: Growth inhibition of human OVCAR3 cells assessed as cell growth at 10^-5 M incubated for 48 hrs by sulforhodamine B assay relative to control; conditions: OVCAR-3, 48 h, read-out: Activity
[20] = test system: OVCAR-8; test: Growth inhibition of human OVCAR8 cells assessed as cell growth at 10^-5 M incubated for 48 hrs by sulforhodamine B assay relative to control; conditions: OVCAR-8, 48 h, read-out: Activity
[21] = test system: NCI/ADR-RES; test: Growth inhibition of human NCI/ADR-RES cells assessed as cell growth at 10^-5 M incubated for 48 hrs by sulforhodamine B assay relative to control; conditions: read-out: Activity
[22] = test system: CAKI-1; test: Growth inhibition of human Caki1 cells assessed as cell growth at 10^-5 M incubated for 48 hrs by sulforhodamine B assay relative to control; conditions: CAKI-1, 48 h, read-out: Activity
[23] = test system: RXF 393; test: Growth inhibition of human RXF393 cells assessed as cell growth at 10^-5 M incubated for 48 hrs by sulforhodamine B assay relative to control; conditions: RXF 393, 48 h, read-out: Activity
[24] = test system: UO-31; test: Growth inhibition of human UO31 cells assessed as cell growth at 10^-5 M incubated for 48 hrs by sulforhodamine B assay relative to control; conditions: UO-31, 48 h, read-out: Activity
[25] = test system: MCF7; test: Growth inhibition of human MCF7 cells at 10^-5 M incubated for 48 hrs by sulforhodamine B assay relative to control; conditions: MCF7, 48 h, read-out: GI
[26] = test system: MDA-MB-231; test: Growth inhibition of human MDA-MB-231 cells assessed as cell growth at 10^-5 M incubated for 48 hrs by sulforhodamine B assay relative to control; conditions: MDA-MB-231, 48 h, read-out: Activity
[27] = test system: BT-549; test: Growth inhibition of human BT549 cells assessed as cell growth at 10^-5 M incubated for 48 hrs by sulforhodamine B assay relative to control; conditions: BT-549, 48 h, read-out: Activity
[28] = test system: T47D; test: Growth inhibition of human T47D cells at 10^-5 M incubated for 48 hrs by sulforhodamine B assay relative to control; conditions: read-out: GI

O=C1NC(=O)C(=Cc2cccn2CCCCCn2c3ccccc3c(=O)c3ccccc32)C(=O)N1
growth at 10 µM [1]: 89.1%
growth at 10 µM [2]: 92%
growth at 10 µM [3]: 86.8%
growth at 10 µM [4]: 105%
growth at 10 µM [5]: 102%
growth at 10 µM [6]: 90.4%
growth at 10 µM [7]: 99.2%
growth at 10 µM [8]: 96.3%
growth at 10 µM [9]: 98.3%
growth at 10 µM [10]: 114%
growth at 10 µM [11]: 103%
growth at 10 µM [12]: 105%
growth at 10 µM [13]: 99.4%
growth at 10 µM [14]: 102%
growth at 10 µM [15]: 101%
growth at 10 µM [16]: 97.7%
growth at 10 µM [17]: 98.7%
growth at 10 µM [18]: 104%
growth at 10 µM [19]: 105%
growth at 10 µM [20]: 102%
growth at 10 µM [21]: 99.5%
growth at 10 µM [22]: 103%
growth at 10 µM [23]: 110%
growth at 10 µM [24]: 79.4%
inhibition of growth at 10 µM [25]: 15%
growth at 10 µM [26]: 116%
growth at 10 µM [27]: 104%
inhibition of growth at 10 µM [28]: 13%

O=C1NC(=O)C(=Cc2cccn2CCCn2c3ccccc3c(=O)c3ccccc32)C(=O)N1
growth at 10 µM [1]: 88.4%
growth at 10 µM [2]: 88%
growth at 10 µM [3]: 91.8%
growth at 10 µM [4]: 98%
growth at 10 µM [5]: 98.1%
growth at 10 µM [6]: 87.8%
growth at 10 µM [7]: 96.3%
growth at 10 µM [8]: 104%
growth at 10 µM [9]: 98.5%
growth at 10 µM [10]: 108%
growth at 10 µM [11]: 99.6%
growth at 10 µM [12]: 107%
growth at 10 µM [13]: 98.7%
growth at 10 µM [14]: 102%
growth at 10 µM [15]: 94.2%
growth at 10 µM [16]: 104%
growth at 10 µM [17]: 95.2%
growth at 10 µM [18]: 102%
growth at 10 µM [19]: 112%
growth at 10 µM [20]: 101%
growth at 10 µM [21]: 101%
growth at 10 µM [22]: 96.7%
growth at 10 µM [23]: 95.9%
growth at 10 µM [24]: 75.9%
inhibition of growth at 10 µM [25]: 12%
growth at 10 µM [26]: 99.4%
growth at 10 µM [27]: 98.9%
inhibition of growth at 10 µM [28]: 15%

O=C1Nc2ccccc2/C1=C/c1cccn1CCCCCCn1c2ccccc2c(=O)c2ccccc21
growth at 10 µM [1]: 66.6%
growth at 10 µM [2]: 25.3%
growth at 10 µM [3]: 80.8%
growth at 10 µM [4]: 65.3%
growth at 10 µM [5]: 63.2%
growth at 10 µM [6]: 56.4%
growth at 10 µM [7]: 72.7%
growth at 10 µM [8]: 73.6%
growth at 10 µM [9]: 97.9%
growth at 10 µM [10]: 50.5%
growth at 10 µM [11]: 12.8%
growth at 10 µM [12]: 102%
growth at 10 µM [13]: 97.2%
growth at 10 µM [14]: 100%
growth at 10 µM [15]: 97.1%
growth at 10 µM [16]: 96.7%
growth at 10 µM [17]: 34.7%
growth at 10 µM [18]: 110%
growth at 10 µM [19]: 64.9%
growth at 10 µM [20]: 47.5%
growth at 10 µM [21]: 71.8%
growth at 10 µM [22]: 72.6%
growth at 10 µM [23]: 99.2%
growth at 10 µM [24]: 56.2%
inhibition of growth at 10 µM [25]: 99%
growth at 10 µM [26]: 75.4%
growth at 10 µM [27]: 63.5%
inhibition of growth at 10 µM [28]: 100%

O=C1Nc2ccccc2/C1=C/c1cccn1CCCCCn1c2ccccc2c(=O)c2ccccc21
growth at 10 µM [1]: 52.1%
growth at 10 µM [2]: 22.1%
growth at 10 µM [3]: 76.1%
growth at 10 µM [4]: 71.8%
growth at 10 µM [5]: 58.3%
growth at 10 µM [6]: 65.5%
growth at 10 µM [7]: 70%
growth at 10 µM [8]: 69.6%
growth at 10 µM [9]: 98.8%
growth at 10 µM [10]: 56.2%
growth at 10 µM [11]: 12.1%
growth at 10 µM [12]: 100%
growth at 10 µM [13]: 93.1%
growth at 10 µM [14]: 94.2%
growth at 10 µM [15]: 95.3%
growth at 10 µM [16]: 93.6%
growth at 10 µM [17]: 32.2%
growth at 10 µM [18]: 106%
growth at 10 µM [19]: 70.9%
growth at 10 µM [20]: 45.6%
growth at 10 µM [21]: 60.9%
growth at 10 µM [22]: 65.9%
growth at 10 µM [23]: 89.2%
growth at 10 µM [24]: 49.3%
inhibition of growth at 10 µM [25]: 99%
growth at 10 µM [26]: 69.3%
growth at 10 µM [27]: 65.5%
inhibition of growth at 10 µM [28]: 98%

O=C1NC(=O)C(=Cc2cccn2CCCCn2c3ccccc3c(=O)c3ccccc32)C(=O)N1
growth at 10 µM [1]: 58.9%
growth at 10 µM [2]: 49.4%
growth at 10 µM [3]: 51.6%
growth at 10 µM [4]: 100%
growth at 10 µM [5]: 79.1%
growth at 10 µM [6]: 86.1%
growth at 10 µM [7]: 88.7%
growth at 10 µM [8]: 81.7%
growth at 10 µM [9]: 97.3%
growth at 10 µM [10]: 100%
growth at 10 µM [11]: 74.3%
growth at 10 µM [12]: 87.9%
growth at 10 µM [13]: 78.5%
growth at 10 µM [14]: 85.4%
growth at 10 µM [15]: 75.4%
growth at 10 µM [16]: 79.9%
growth at 10 µM [17]: 73.8%
growth at 10 µM [18]: 91.4%
growth at 10 µM [19]: 96.6%
growth at 10 µM [20]: 86.4%
growth at 10 µM [21]: 88.4%
growth at 10 µM [22]: 82.9%
growth at 10 µM [23]: 81.4%
growth at 10 µM [24]: 63.4%
inhibition of growth at 10 µM [25]: 43%
growth at 10 µM [26]: 82.5%
growth at 10 µM [27]: 88.1%
inhibition of growth at 10 µM [28]: 43%
